Measured values: PubChem BioAssay (NCI)
Several values for one entry are separate records, joined by “and”; a condition that tells them apart may be missing. Equal values may be shown once.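 Cultured in 96-well plates, cells were exposed to test compound for 48 hours across five concentrations. GI50: concentration for 50% inhibition of growth. At the TGI there is no net growth.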

Key:
Experiment in all cases: growth of human tumour cells (NCI), 48 h
[1] = system: CCRF-CEM leukemia
[2] = system: IGROV1 ovarian
[3] = system: SK-MEL-28 melanoma
[4] = system: RXF 393 renal
[5] = system: K-562 leukemia
[6] = system: HS 578T breast
[7] = system: UACC-62 melanoma
[8] = system: 786-0 renal
[9] = system: A549 NSCLC
[10] = system: HCT-116 colon

Structure (SMILES)	TGI [1]	TGI [2]	TGI [3]	TGI [4]	TGI [5]	TGI [6] [µM]	TGI [7]	TGI [8] [µM]	TGI [9]	TGI [10]	GI50 [1]	GI50 [2] [µM]	GI50 [3] [µM]	GI50 [5] [µM]	GI50 [7] [µM]	GI50 [9] [µM]	GI50 [10] [µM]
Oc1cccc2c(Cl)ccnc12	2.52 µM	> 29.7 µM	35.9 µM	7.95 µM	5.96 µM	> 73.9	8.45 µM	> 100	> 100 µM	15.2 µM	–	–	–	–	–	–	–
COc1cc(/C=C/C(=N\NS(=O)(=O)c2ccc(C)cc2)c2sc(NNC(C)=O)nc2C)ccc1O	> 100 µM	> 100 µM	> 100 µM	> 100 µM	–	> 100	> 100 µM	> 100	> 100 µM	> 100 µM	–	–	–	–	–	–	–
CC(C)/C(Cl)=N\OC(=O)Nc1ccc(S(N)(=O)=O)cc1	6.49 µM	33.9 µM	31.3 µM	25.2 µM	5.52 µM	63.5	37 µM	31	37.9 µM	27.7 µM	–	–	–	–	–	–	–
O=c1[nH][nH]c(=O)n1Cc1ccccc1Cn1c(=O)[nH][nH]c1=O	> 100 µM	> 100 µM	> 100 µM	> 100 µM	> 100 µM	> 100	> 100 µM	> 100	> 100 µM	> 100 µM	–	–	–	–	–	–	–
Clc1cc(OC2C3CC4CC(C3)CC2C4)nc(Cl)n1 (stereo unspecified)	38.8 µM	23.3 µM	29.1 µM	27.4 µM	24.1 µM	42.9	24.7 µM	33.5	95.9 µM	27.5 µM	–	–	–	–	–	–	–
Cc1c2cnccc2c(C)c2c1c1ccccc1n2CCCN	0.75 µM and 0.215 µM	1.74 µM and 0.973 µM	1.98 µM and 1.25 µM	0.799 µM and 0.888 µM	0.794 µM and 0.598 µM	2.37	1.7 µM and 1.75 µM	0.564	1.29 µM and 0.447 µM	0.609 µM and 0.628 µM	0.0966 µM and 0.0188 µM	0.198	0.333	0.0402	0.517	0.0471	0.121
O=C(CCC(=O)c1ccc(Cl)cc1)NO	> 100 µM	> 100 µM	> 100 µM	> 100 µM	> 100 µM	> 100	> 100 µM	> 100	> 100 µM	> 100 µM	–	–	–	–	–	–	–
CC(C)C1/C(=N/O)CC(c2ccccc2)N(N=O)C1c1ccccc1 (stereo unspecified)	> 100 µM	> 100 µM	> 100 µM	> 100 µM	> 100 µM	> 100	45.3 µM	> 100	> 100 µM	85.7 µM	–	–	–	–	–	–	–
NC(=O)C(c1ccccc1)N1OC2C(=O)N(c3ccccc3)C(=O)C2C1c1c2ccccc2c(Cl)c2ccccc12 (stereo unspecified)	> 100 µM	> 100 µM	> 100 µM	> 100 µM	> 100 µM	> 100	> 100 µM	> 100	> 100 µM	> 100 µM	–	–	–	–	–	–	–
COC(=O)[C@H]1CO[C@@H](C(C)(C)C)N1C(=O)N1C=CC(=O)C[C@@H]1C	> 100 µM	> 100 µM	> 100 µM	> 100 µM	> 100 µM	> 100	> 100 µM	> 100	> 100 µM	> 100 µM	–	–	–	–	–	–	–
COc1ccc(C2c3cc4c(cc3OC(NNS(=O)(=O)c3ccc(C)cc3)C2C)OCO4)cc1 (stereo unspecified)	> 100 µM	> 100 µM	> 100 µM	> 100 µM	> 100 µM	> 100	> 100 µM	> 100	> 100 µM	> 100 µM	–	–	–	–	–	–	–
CC1(C)N=C(/C(Cl)=[N+](/[O-])C(=O)c2ccc(F)cc2)C(C)(C)N1O	12.8 µM	37 µM	32.4 µM	28.8 µM	17.3 µM	57.1	33 µM	27.7	> 100 µM	30.6 µM	–	–	–	–	–	–	–
CCCN=C1CCN(Cc2ccccc2)c2ccccc2N1	> 100 µM	19.5 µM	29.3 µM	29.6 µM	19.4 µM	36.2	26.2 µM	> 100	> 100 µM	> 100 µM	–	–	–	–	–	–	–
O=c1[nH]cc(N=Cc2cc(Cl)cc(Cl)c2O)c(=O)[nH]1	99 µM	50.1 µM	54.5 µM	> 100 µM	> 100 µM	67.1	61.5 µM	62.2	> 100 µM	43.3 µM	–	–	–	–	–	–	–
CCOC(=O)c1c2ccccc2n2c(N)c(C(N)=O)nnc12	> 100 µM	42.6 µM	> 100 µM	41.6 µM	> 100 µM	35.5	81.1 µM	> 100	> 100 µM	> 100 µM	–	–	–	–	–	–	–
